Data on three molecules can be found in paper PMC11505029, “Isatin Bis-Imidathiazole Hybrids Identified as FtsZ Inhibitors with On-Target Activity Against Staphylococcus aureus” (Antibiotics, 2024).

Data set [1] concerns S. aureus ATCC 25923. The arrangement: method as in PMID 36144518. To be noted: cited from earlier work.
For data set [2], the system named is Vero cell line (ATCC CCL-81). Set-up: method as in PMID 36144518. To be noted: 100 μM; mean ± SD; cited from earlier work.
Data set [3] concerns C. albicans ATCC 10231. The arrangement: method as in PMID 36144518. To be noted: 100 μM; mean ± SD; cited from earlier work.
Data set [4] deals with E. coli ATCC 25922. The arrangement: method as in PMID 36144518. The note with it: 100 μM; mean ± SD; cited from earlier work.
Data set [5] deals with E. coli ATCC 25922. Nature of the data set: broth microdilution antimicrobial activity, E. coli reference strain. The data set is classed as cell-based, Escherichia coli. The note with it: Escherichia coli, ATCC25922; 100 μM; growth relative to positive control; mean ± SD; read-out: Microbial growth, E. coli. As to the method:
(§1) Reference bacterial strains of Staphylococcus aureus (ATCC 25923), Escherichia coli (ATCC 25922), and Candida albicans (ATCC 10231) were used in this study as Gram-positive, Gram-negative, and fungal models, respectively. These reference strains were purchased from the American Type Culture Collection (ATCC, Manassas, VA, USA); bacterial cultures were routinely grown at 37 °C on 5% blood agar plate, while fungal cultures on Sabouraud Dextrose Agar (Biolife Italiana S.r.l., Milan, Italy).
(§2) The dry powder of the isatin derivatives was resuspended in dimethylsulfoxide (DMSO) at 20 mM and used as stock solutions. For biological investigations, compounds were used in the range 100–0.78 µM, and the solvent in the corresponding percentage range.
(§3) The antimicrobial activity of the compounds was assessed by a well-established broth microdilution procedure in microtiter plates and in compliance with the Clinical and laboratory Standard Institute (CLSI) guidelines (Clinical and Laboratory Standards Institute, Wayne, PA, USA). In short, microbial inocula were prepared at 0.5 McFarland in PBS and, subsequently, bacterial suspensions were diluted 1:200 in Mueller–Hinton broth (Sigma-Aldrich, St. Louis, MO, USA), while fungal inoculum was diluted 1:20 in RPMI-1640 medium (Gibco®, ThermoFisher Scientific Inc., Waltham, MA, USA), containing 2% glucose and 0.3% levo-glutamine buffered to pH 7.0 with 0.165 M 3-(N-morpholino)propanesulfonic acid (MOPS). A total of 100 µL of these microbial suspensions were introduced in a 96-well microplate and incubated with 100 µL of the compounds, two-fold serially diluted in the range of 100–0.19 µM. Positive controls (microbial suspensions in regular media), negative controls (only compounds), and solvent controls (microbial suspensions incubated with DMSO dilutions) were included in the tests. The plate was incubated at 37 °C for 24 h, and subsequently, the optical density at 630 nm (OD630nm) was spectrophotometrically measured. Each experiment was carried out with three technical replicates (i.e., three wells per sample) and repeated at least two times for statistical power. […] IC50 values, corresponding to the concentration of the compound giving rise to an inhibition of growth of 50%, were obtained by interpolation on dose–response curves generated by plotting the percentages of growth inhibition, relative to the positive control (set to 100% of growth), as a function of the tested concentrations (on a logarithm scale). Statistical analysis was carried out using GraphPad Prism version 9.4.1 for Windows (GraphPad Software, San Diego, CA, USA, www.graphpad.com).

The nature of data set [6]: cell viability and proliferation assay (WST8/CCK-8). The note with it: African green monkey, Vero cells (ATCC CCL-81); Vero cells; mean [95% confidence interval]. The data set is classed as cell-based. As to the method: (§4) Vero cell line (ATCC CCL-81) was selected as the model system to assess the effect of the isatin hybrids on normal epithelial cells, and a previously established protocol was used with minor modifications. Briefly, cells were cultured in RPMI-1640 medium supplemented with 10% fetal bovine serum (FBS) (Carlo Erba Reagents, Milan, Italy), 100 U/mL penicillin, and 100 µg/mL streptomycin at 37 °C with 5% CO2. For experiments, cells were seeded into 96-well plates at 10^4 cells/well, and incubated at 37 °C for 24 h. Following washes with PBS, the cell monolayer was incubated with 100 µL of medium containing the 2-fold serial dilutions of the compounds. Both untreated cells and cells incubated with medium containing solvent dilutions were included in each experiment as controls. The cell viability was assessed by a WST8-based assay according to the manufacturer’s instructions (CCK-8, Cell Counting Kit-8, Dojindo Molecular Technologies, Rockville, MD, USA). After 48 h of incubation, culture medium was removed from each well, the monolayer was washed with PBS, and 100 µL of fresh medium containing 10 µL of CCK-8 solution were added. After 2 h at 37 °C, the OD450nm was read, and data were expressed as the percentage of the cell viability relative to the untreated controls. The CC50 was obtained from the corresponding dose–response curves generated, as previously reported for IC50 values.
(Formazan colour is commonly taken as a measure of viable cells.)

For data set [7], the system named is Vero cell line (ATCC CCL-81). The description is as above. Format: cell-based. The note with it: Chlorocebus sabaeus, Vero, 48 h; 100 μM; viability relative to untreated controls; mean ± SD; read-out: Cell proliferation, Vero. As to the method:
as §4

For data set [8], the system named is S. aureus ATCC 25923. Description: broth microdilution antimicrobial activity, S. aureus reference strain. The data set is classed as cell-based, Staphylococcus aureus. The note with it: for activity at 100 µM / IC50: Staphylococcus aureus; for activity at 100 µM: ATCC25923, 100 μM, growth relative to positive control, mean ± SD, read-out: Microbial growth, S. aureus; for IC50: ATCC25923, S. aureus ATCC 25923, mean [95% confidence interval]. On the procedure:
as §1, §2, §3

The subject of data set [9] is C. albicans ATCC 10231. Description: broth microdilution antimicrobial activity, C. albicans reference strain. The data set is classed as cell-based, Candida albicans. To be noted: Candida albicans, ATCC10231; 100 μM; growth relative to positive control; mean ± SD; read-out: Microbial growth, C. albicans. As to the method:
as §1, §2, §3
On the technique in general: Broth dilution looks for growth in wells or tubes with falling amounts of substance.

Where two headings read alike, the source gives them in different places. Bounds are passed on as bounds.

In general, IC50 refers to the point on the concentration scale where inhibition reaches its midpoint. For orientation: CC50 means the concentration that lowers cell viability or growth by half. High values mean lower toxicity to the cells, low ones greater toxicity to the cells.

Take `COc1ccc2c(c1)C(c1c(Cl)nc3sccn13)(c1c(Cl)nc3sccn13)C(=O)N2` [Compound 6k]: the “Microbial growth, S. aureus” value with S. aureus ATCC 25923 [1] (100 μM, mean ± SD) is reported as 43.4 ± 5.6%. For the same molecule, in the data set with S. aureus ATCC 25923 [1] (S. aureus, lead compounds), the IC50 is 80 µM. Further, the “Cell proliferation, Vero” value in data set [2] is 70.9 ± 5.6%. The “Microbial growth, C. albicans” value with C. albicans ATCC 10231 [3] is given as 104.1 ± 1.9%. In addition, in the data set on E. coli ATCC 25922 [4], the “Microbial growth, E. coli” value is given as 102.7 ± 2.4%.

Consider `O=C1N(CC=Cc2ccccc2)c2ccccc2C1(c1c(Cl)nc2sccn12)c1c(Cl)nc2sccn12` [Compound 15, 3,3-bis(6-Chloroimidazo[2,1-b]thiazol-5-yl)-1-cinnamylindolin-2-one], for which the values for the activity at 100 µM with E. coli ATCC 25922 [5], with S. aureus ATCC 25923 [8] and in the data set on C. albicans ATCC 10231 [9] were 69.5 ± 1.8%, under 30% and 60.7 ± 1.7%, respectively. In addition, the CC50 at 48 h in data set [6] is over 100 µM. In addition, the viability at 100 µM in data set [7] amounted to 101 ± 1.5%. The IC50 in the data set with S. aureus ATCC 25923 [8] amounted to 90.1 µM.

In the case of `O=C1Nc2ccc(F)cc2C1(c1c(Cl)nc2sccn12)c1c(Cl)nc2sccn12` [Compound 5, 3,3-bis(6-Chloroimidazo[2,1-b]thiazol-5-yl)-5-fluoroindolin-2-one], the activity at 100 µM is 98.9 ± 1.4% in the data set on E. coli ATCC 25922 [5], under 30% in the data set on S. aureus ATCC 25923 [8] and 102 ± 1.5% in the data set on C. albicans ATCC 10231 [9]. In [6], this molecule showed a CC50 at 48 h of 116 µM. For the same molecule, the viability at 100 µM in [7] was 43.5 ± 3.3%. Also, in the data set with S. aureus ATCC 25923 [8] (CC50 Vero / IC50 S. aureus), the “SI (selectivity index, CC50/IC50)” value came out at 1.5. The same molecule showed a 50% inhibitory concentration (IC50) with S. aureus ATCC 25923 [8] of 75.6 µM.
